pEC50, pIC50: −log10 of the molar value. “And” between values parts separate entries of the source, which are not always exact repeats. Identical values can stand only once. Counter-ions that a name gives are not always drawn. Like-named read-outs stand apart in the source and are kept apart here.
Legend:
[1] = target: T1, SFRP-1 (Homo sapiens, UniProt Q8N474); assay: Fluorescence polarization binding assay (competitive displacement of a probe compound from SFRP-1); conditions: fluorescence anisotropy, 45 nM SFRP-1, 20 nM probe;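 note: test compound competes with a fluorescent probe held by SFRP-1, seen as a drop in probe anisotropy after incubation in darkness, with anisotropy as function of rising compound dose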
T1 sequence (Q8N474 32-314): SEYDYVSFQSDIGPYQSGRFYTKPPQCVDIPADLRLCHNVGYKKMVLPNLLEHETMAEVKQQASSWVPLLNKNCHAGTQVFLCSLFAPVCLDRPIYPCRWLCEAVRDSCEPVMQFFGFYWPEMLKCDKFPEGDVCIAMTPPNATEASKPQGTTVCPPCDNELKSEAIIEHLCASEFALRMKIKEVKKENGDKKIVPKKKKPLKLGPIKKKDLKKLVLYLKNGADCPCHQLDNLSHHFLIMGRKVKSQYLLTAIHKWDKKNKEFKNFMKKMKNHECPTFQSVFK

[2] = target: T1, SFRP-1; assay: Cell-based assay for in vitro measurement of SFRP-1/SARP2 antagonist activity (U2OS cells co-transfected with 16x TCF-tk-Luciferase reporter, Wnt and hSFRP-1); conditions: for fold induction at 10 µM / fold induction at 15 µM: U2OS; for fold induction at 10 µM: read-out: Fold Induction with SFRP-1, U2OS cells, single dose 10 μM, luciferase reporter, fold induction over SFRP-1 control;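 for all read-outs here: U2OS cells co-transfected with a TCF-tk luciferase reporter, a Wnt vector, hSFRP-1 or empty vector and CMV-βgal, luciferase luminescence read in cell lysates alongside βgal activity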
[3] = read-out: Fold Induction with SFRP-1, Conc 15 μM, single dose, luciferase reporter, fold induction over SFRP-1 control, cells with SFRP-1
[4] = read-out: Fold Induction without SFRP-1, Conc 15 μM, single dose, luciferase reporter, cells without SFRP-1 (specificity control)
[5] = read-out: Fold Induction with SFRP-1, Conc 15 μM, with SFRP-1, fold induction over SFRP-1 control, single dose
[6] = read-out: Fold Induction without SFRP-1, Conc 15 μM, without SFRP-1, single dose

Structure (SMILES) | pIC50 [1] | fold induction at 10 µM [2] | pEC50 [2] | fold induction at 15 µM [2, 3] | fold induction at 15 µM [2, 4] | fold induction at 15 µM [2, 5] | fold induction at 15 µM [2, 6]
O=C(c1ccc(Cl)c(Cl)c1)N1CCC(NS(=O)(=O)c2cc(S(=O)(=O)c3ccccc3)ccc2C(F)(F)F)CC1 [Example 712, N-[1-(3,4-dichlorobenzoyl)piperidin-4-yl]-5-(phenylsulfonyl)-2-(trifluoromethyl)benzenesulfonamide] | 6.30 | 2.9 |  |  |  |  | 
CN(CCNS(=O)(=O)c1cc(S(=O)(=O)c2ccccc2)ccc1C(F)(F)F)C(=O)C1CCCCC1 [Example 846, N-methyl-N-[2-({[5-(phenylsulfonyl)-2-(trifluoromethyl)phenyl]sulfonyl}amino)ethyl]cyclohexanecarboxamide] | 6.52 | 3.2 | 5.57 |  |  |  | 
O=S(=O)(NCCN1CCOCC1)c1cc(S(=O)(=O)c2ccccc2)ccc1C(F)(F)F [Example 766, N-(2-morpholin-4-ylethyl)-5-(phenylsulfonyl)-2-(trifluoromethyl)benzenesulfonamide] | 6.40 | 2.7 | 5.91 |  |  |  | 
O=C(O)c1cccc(S(=O)(=O)N2CCCC2CCNS(=O)(=O)c2cc(S(=O)(=O)c3ccccc3)ccc2C(F)(F)F)c1 (stereo not shown) [Example 920, 3-({2-[2-({[5-(phenylsulfonyl)-2-(trifluoromethyl)phenyl]sulfonyl}amino)ethyl]pyrrolidin-1-yl)sulfonyl)benzoic acid] | 6.55 | 2.2 | 5.74 |  |  |  | 
CCC(CC)C(=O)N(C)CCNS(=O)(=O)c1cc(S(=O)(=O)c2ccccc2)ccc1C(F)(F)F [Example 864, 2-ethyl-N-methyl-N-[2-({[5-(phenylsulfonyl)-2-(trifluoromethyl)phenyl]sulfonyl}amino)ethyl]butanamide] | 6.52 | 3.2 | 5.74 |  |  |  | 
CCCc1ccc(S(=O)(=O)c2ccccc2)cc1S(=O)(=O)NCCC1CCOCC1 [Example 553, 5-(Phenylsulfonyl)-2-propyl-N-[2-(tetrahydro-2H-pyran-4-yl)ethyl]benzenesulfonamide] | 5.52 |  |  | 2.5 | 1.1 |  | 
Cc1ccc(S(=O)(=O)c2ccccc2)cc1S(=O)(=O)NC1CCCC1 [Example 399, N-cyclopentyl-2-methyl-5-(phenylsulfonyl)benzenesulfonamide] | 5.52 |  |  |  |  | 2.5 | 1.1
Cc1ccc(S(=O)(=O)c2cccc(Cl)c2Cl)cc1S(=O)(=O)NCCCn1ccnc1 [Example 360, 5-[(2,3-dichlorophenyl)sulfonyl]-N-[3-(1H-imidazol-1-yl)propyl]-2-methylbenzenesulfonamide] | 5.70 |  |  |  |  | 1.9 | 0.9
O=S(=O)(NC1CCNC1)c1cc(S(=O)(=O)c2ccccc2)ccc1C(F)(F)F (stereo not shown) [Example 840, 5-(phenylsulfonyl)-N-pyrrolidin-3-yl-2-(trifluoromethyl)benzenesulfonamide] | 6.10 | 2.9 |  |  |  |  | 
COc1cccc(C(=O)N2CCC(NS(=O)(=O)c3cc(S(=O)(=O)c4ccccc4)ccc3C)CC2)c1 [Example 463, N-[1-(3-methoxybenzoyl)piperidin-4-yl]-2-methyl-5-(phenylsulfonyl)benzenesulfonamide] | 6.15 |  |  |  |  | 2.9 | 1
O=S(=O)(NCCC1CCNCC1)c1cc(S(=O)(=O)c2ccccc2)ccc1C(F)(F)F [Example 940, 5-(phenylsulfonyl)-N-(2-piperidin-4-ylethyl)-2-(trifluoromethyl)benzenesulfonamide] | 5.96 | 4.1 | 5.64 |  |  |  | 
CCOC(=O)N1CCC(NS(=O)(=O)c2cc(S(=O)(=O)c3ccc(F)cc3)ccc2C(C)C)CC1 [Example 526, ethyl 4-[({5-[(4-fluorophenyl)sulfonyl]-2-isopropylphenyl}sulfonyl)amino]piperidine-1-carboxylate] | 6.30 |  |  | 2.1 | 1.1 |  | 
O=S(=O)(NCCc1nn[nH]n1)c1cc(S(=O)(=O)c2ccccc2)ccc1C(F)(F)F [Example 863, 5-(phenylsulfonyl)-N-[2-(2H-tetrazol-5-yl)ethyl]-2-(trifluoromethyl)benzenesulfonamide] | 5.74 | 2.4 |  |  |  |  | 
O=C(c1ccc(=O)[nH]c1)N1CCC(NS(=O)(=O)c2cc(S(=O)(=O)c3ccccc3)ccc2C(F)(F)F)CC1 [Example 1040, N-{1-[(6-oxo-1,6-dihydropyridin-3-yl)carbonyl]piperidin-4-yl}-5-(phenylsulfonyl)-2-(trifluoromethyl)benzenesulfonamide] | 6.85 |  | 6.66 |  |  |  | 
CC(C)c1ccc(S(=O)(=O)c2ccc(NCCC#N)cc2)cc1S(=O)(=O)NCC1CCOCC1 [Example 536, 5-({4-[(2-cyanoethyl)amino]phenyl}sulfonyl)-2-isopropyl-N-(tetrahydro-2H-pyran-4-ylmethyl)benzenesulfonamide] | 6.40 |  |  | 3 | 1.2 |  | 
NCCNS(=O)(=O)c1cc(S(=O)(=O)c2ccccc2)ccc1C(F)(F)F [Example 762, N-(2-Aminoethyl)-5-(phenylsulfonyl)-2-(trifluoromethyl)benzenesulfonamide hydrochloride] | 5.68 | 2.2 |  |  |  |  | 
CC(C)c1ccc(S(=O)(=O)c2ccc(F)cc2)cc1S(=O)(=O)NCCn1ccnc1C(C)C [Example 588, 5-[(4-fluorophenyl)sulfonyl]-2-isopropyl-N-[2-(2-isopropyl-1H-imidazol-1-yl)ethyl]benzenesulfonamide] | 6.40 |  |  | 3.6 | 1.7 |  | 
CC(C)c1ccc(S(=O)(=O)c2ccc(F)cc2)cc1S(=O)(=O)NC1CCN(C(=S)Nc2cccnc2)CC1 [Example 701, 4-[({5-[(4-fluorophenyl)sulfonyl]-2-isopropylphenyl}sulfonyl)amino]-N-pyridin-3-ylpiperidine-1-carbothioamide] | 6.15 | 3 | 6.16 |  |  |  | 
CC(C)c1ccc(S(=O)(=O)c2ccc(F)cc2)cc1S(=O)(=O)NCCc1cccnc1 [Example 534, 5-[(4-fluorophenyl)sulfonyl]-2-isopropyl-N-(2-pyridin-3-ylethyl)benzenesulfonamide] | 6.70 and 6.52 |  |  | 4 | 1.1 |  | 
Cc1cc(N(C)C)ccc1S(=O)(=O)c1ccc(C(C)C)c(S(=O)(=O)NCCc2ccccn2)c1 [Example 600, 5-{[4-(dimethylamino)-2-methylphenyl]sulfonyl}-2-isopropyl-N-(2-pyridin-2-ylethyl)benzenesulfonamide] | 5.70 |  |  | 3 | 1.1 |  | 
O=C(c1ccccc1)c1cccc(C(=O)N2CCC(NS(=O)(=O)c3cc(S(=O)(=O)c4ccccc4)ccc3C(F)(F)F)CC2)c1 [Example 801, N-[1-(3-benzoylbenzoyl)piperidin-4-yl]-5-(phenylsulfonyl)-2-(trifluoromethyl)benzenesulfonamide] | 6.74 | 3.4 | 5.97 |  |  |  | 
CC(=O)c1cccc(S(=O)(=O)c2ccc(C(C)C)c(S(=O)(=O)NCCc3ccccn3)c2)c1C [Example 594, 5-[(3-acetyl-2-methylphenyl)sulfonyl]-2-isopropyl-N-(2-pyridin-2-ylethyl)benzenesulfonamide] | 5.40 |  |  | 2.3 | 1 |  | 

Source: patent publication US20060276464A1, “Diarylsulfone sulfonamides and use thereof” (Wyeth, priority 2005, published 2006)
